Assay results reported in patent publication US20080287514A1, “Topical compositions containing metronidazole” (priority 2007, published 2008).
Each block holds one compound with its values, some of them ahead of it.

How the values were obtained:
[1] = Physical stability test (crystal formation or precipitation after 24 hours at room temperature and 7 days at about 4 °C); type: physicochemical; settings: for Results from stability test: aqueous solution, 7 days at about 4 °C
Method: The solubility enhancing effect of the combination of niacinamide and hydroxyalkyl urea in increasing the solubility of metronidazole in the aqueous compositions is evaluated by physical stability of the prepared compositions.
Therefore, the compositions in accordance with the present invention are subject to a physical stability test. The protocol for the stability test is as follows: metronidazole and the solubility enhancing agents are combined with water either at room temperature or elevated temperature while stirring until dissolved. The solutions are permitted to cool to room temperature. Customary auxiliaries and additives may be added to the aqueous solutions containing solubilized metronidazole and solubility enhancing agents. The solutions may be gelled by using the suitable gelling agents. The compositions both in gel or solution form are then packaged in clear glass vials and sealed. The vials are kept at room temperature for 24 hours and monitored for crystal formation or precipitation. After 24 hours, the vials are placed in a refrigerator maintained at a temperature of about 4° C. for 7 days. After 7 days, the vials are removed from the refrigerator. Evidence of crystal formation or precipitation in the compositions is examined.
(§1) Each formulation was prepared by combining niacinamide and metronidazole in water (q.s 100%). The mixture was kept at a temperature of about 45° C. while stirring until dissolved. The solutions were permitted to cool to room temperature, packaged and sealed in glass vials. The stability tests described in Example 1 were performed and the test results were recorded.
as §1, with “N-2-hydroxyethyl urea” for “niacinamide”, “(q.s.” for “(q.s”
as §1, with “N-2-hydroxyethyl urea, niacinamide,” for “niacinamide”, “(q.s.” for “(q.s”, “100%). N-2-hydroxyethyl urea is available from a number of commercial sources, for example, Aldrich Chemical Company (Milwaukee, Wis.).” for “100%).”, “kept either at room temperature or” for “kept”

[2] = at 25 °C; cited from earlier work

- Results from stability test ([1]; 1.0% metronidazole, 1.0% N-2-hydroxyethyl urea, 3.0% niacinamide): Crystals
- Results from stability test ([1]; 1.0% metronidazole, 1.0% N-2-hydroxyethyl urea, 4.0% niacinamide): Clear
- Results from stability test ([1]; 1.0% metronidazole, 2% niacinamide): Crystals formed
- Results from stability test ([1]; 1.0% metronidazole, 3.0% N-2-hydroxyethyl urea, 3.0% niacinamide): Clear
- Results from stability test ([1]; 1.0% metronidazole, 3% niacinamide): Crystals formed
- Results from stability test ([1]; 1.0% metronidazole, 4.0% N-2-hydroxyethyl urea, 1.0% niacinamide): Crystals
- Results from stability test ([1]; 1.0% metronidazole, 4% niacinamide): Crystals formed
- Results from stability test ([1]; 1.0% metronidazole, 5.0% N-2-hydroxyethyl urea, 1.0% niacinamide): Clear
- Results from stability test ([1]; 1.0% metronidazole, 5.0% N-2-hydroxyethyl urea, 1.0% niacinamide, listed as metronidazole): stable
- Results from stability test ([1]; 1.0% metronidazole, 5.0% N-2-hydroxyethyl urea, 2.0% niacinamide): Clear
- Results from stability test ([1]; 1.0% metronidazole, 5% niacinamide): Clear
- Results from stability test ([1]; 1.0% metronidazole, 13% N-2-hydroxyethyl urea): Crystals formed
- Results from stability test ([1]; 1.0% metronidazole, 14% N-2-hydroxyethyl urea): Crystals formed
- Results from stability test ([1]; 1.0% metronidazole, 15% N-2-hydroxyethyl urea): Crystals formed
- Results from stability test ([1]; 1.0% metronidazole, 16% N-2-hydroxyethyl urea): Clear
- Results from stability test ([1]; 1.2% metronidazole, 10.0% N-2-hydroxyethyl urea, 2.0% niacinamide): Clear
Structure (SMILES): Cc1ncc([N+](=O)[O-])n1CCO [Metronidazole, 1-(2-hydroxyethyl)-2-methyl-5-nitroimidazole]

- concentration of N-2-hydroxyethyl urea required to obtain a stable aqueous solution of 1.0% metronidazole ([1]; N-2-hydroxyethyl urea as the only solubility enhancing agent): about 16%
- concentration of N-2-hydroxyethyl urea needed to obtain a stable aqueous solution of 1.0% metronidazole ([1]; concentration of niacinamide is 1.0%): ≥ 5.0%
Structure (SMILES): NC(=O)NCCO [N-2-hydroxyethyl urea]

- concentration of niacinamide needed to obtain a stable aqueous solution of 1.0% metronidazole ([1]; concentration of N-2-hydroxyethyl urea is 1.0%): about 4.0%
- N-2-hydroxyethyl urea functionally equivalent to 1% niacinamide in inducing the solubility enhancing effect ([1]; from Examples 2 and 3, 1.0% metronidazole): about 3.2%
- concentration of niacinamide required to obtain a stable aqueous solution of 1.0% metronidazole ([1]; niacinamide as the only solubility enhancing agent): about 5%
Structure (SMILES): NC(=O)c1cccnc1 [niacinamide]
- water solubility limit [2]: about 50 % by weight
